Test results published in ChEMBL document CHEMBL1157445, “Design, synthesis and evaluation of isaindigotone derivatives as acetylcholinesterase and butyrylcholinesterase inhibitors” (Bioorg Med Chem Lett, 2008).

Key:
[1] = target: Acetylcholinesterase (Electrophorus electricus, UniProt O42275)
Description: Inhibition of electric eel AchE

[2] = target: Cholinesterase (Equus caballus, UniProt P81908)
Description: Inhibition of equine serum BuchE

[3] = target: Acetylcholinesterase (Homo sapiens, UniProt P22303); assay: Inhibition of AchE
[4] = target: Cholinesterase (Homo sapiens, UniProt P06276); assay: Inhibition of BuchE
Cholinesterase (Homo sapiens, UniProt P06276), sequence (P06276 whole entry): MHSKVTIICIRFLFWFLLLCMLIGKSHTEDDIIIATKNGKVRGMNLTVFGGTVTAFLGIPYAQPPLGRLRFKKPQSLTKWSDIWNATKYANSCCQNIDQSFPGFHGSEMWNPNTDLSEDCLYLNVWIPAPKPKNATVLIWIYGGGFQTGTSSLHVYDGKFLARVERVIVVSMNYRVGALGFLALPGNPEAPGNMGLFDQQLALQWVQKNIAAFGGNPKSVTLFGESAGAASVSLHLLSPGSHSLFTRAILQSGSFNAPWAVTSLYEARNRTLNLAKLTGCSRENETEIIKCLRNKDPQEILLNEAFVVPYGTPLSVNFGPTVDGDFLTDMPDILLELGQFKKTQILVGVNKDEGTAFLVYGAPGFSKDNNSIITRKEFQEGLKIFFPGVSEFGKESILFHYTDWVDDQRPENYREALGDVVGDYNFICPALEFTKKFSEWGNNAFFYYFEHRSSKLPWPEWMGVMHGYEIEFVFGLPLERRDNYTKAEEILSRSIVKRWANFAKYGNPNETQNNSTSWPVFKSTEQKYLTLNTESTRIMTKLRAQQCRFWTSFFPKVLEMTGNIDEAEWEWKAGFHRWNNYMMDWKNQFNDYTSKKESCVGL

Acetylcholinesterase (Electrophorus electricus, UniProt O42275), sequence (O42275 whole entry): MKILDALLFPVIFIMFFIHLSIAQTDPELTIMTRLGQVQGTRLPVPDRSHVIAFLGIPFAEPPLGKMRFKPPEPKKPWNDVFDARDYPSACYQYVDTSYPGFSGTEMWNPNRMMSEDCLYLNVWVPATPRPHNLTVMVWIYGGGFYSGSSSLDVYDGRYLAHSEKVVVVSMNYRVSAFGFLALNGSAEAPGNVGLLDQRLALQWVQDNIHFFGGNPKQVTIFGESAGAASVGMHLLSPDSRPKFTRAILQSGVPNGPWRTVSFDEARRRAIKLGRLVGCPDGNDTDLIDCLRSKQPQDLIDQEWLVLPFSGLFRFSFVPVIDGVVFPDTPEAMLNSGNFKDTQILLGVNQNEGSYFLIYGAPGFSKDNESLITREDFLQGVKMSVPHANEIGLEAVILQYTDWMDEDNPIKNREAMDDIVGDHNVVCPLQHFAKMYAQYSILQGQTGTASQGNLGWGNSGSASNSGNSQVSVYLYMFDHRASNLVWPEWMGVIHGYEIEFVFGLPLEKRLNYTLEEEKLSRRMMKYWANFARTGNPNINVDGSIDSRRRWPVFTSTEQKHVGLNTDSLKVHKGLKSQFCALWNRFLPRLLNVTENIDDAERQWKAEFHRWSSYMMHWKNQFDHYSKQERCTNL
Cholinesterase (Equus caballus, UniProt P81908), sequence (P81908 whole entry): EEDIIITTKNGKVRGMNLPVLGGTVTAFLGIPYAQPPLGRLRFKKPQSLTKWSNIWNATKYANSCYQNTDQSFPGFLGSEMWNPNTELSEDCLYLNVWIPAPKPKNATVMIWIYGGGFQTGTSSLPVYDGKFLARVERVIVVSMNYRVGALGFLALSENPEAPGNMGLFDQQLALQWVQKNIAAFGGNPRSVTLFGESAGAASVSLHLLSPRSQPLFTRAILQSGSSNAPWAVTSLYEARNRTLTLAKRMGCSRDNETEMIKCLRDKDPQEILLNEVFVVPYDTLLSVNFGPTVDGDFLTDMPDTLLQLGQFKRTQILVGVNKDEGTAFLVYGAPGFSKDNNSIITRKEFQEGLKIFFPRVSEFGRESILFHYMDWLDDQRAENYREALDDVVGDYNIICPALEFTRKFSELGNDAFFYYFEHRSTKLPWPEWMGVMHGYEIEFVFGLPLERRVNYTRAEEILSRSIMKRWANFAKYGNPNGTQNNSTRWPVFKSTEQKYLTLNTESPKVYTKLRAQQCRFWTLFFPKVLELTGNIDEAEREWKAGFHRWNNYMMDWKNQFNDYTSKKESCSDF
Acetylcholinesterase (Homo sapiens, UniProt P22303), sequence (P22303 whole entry): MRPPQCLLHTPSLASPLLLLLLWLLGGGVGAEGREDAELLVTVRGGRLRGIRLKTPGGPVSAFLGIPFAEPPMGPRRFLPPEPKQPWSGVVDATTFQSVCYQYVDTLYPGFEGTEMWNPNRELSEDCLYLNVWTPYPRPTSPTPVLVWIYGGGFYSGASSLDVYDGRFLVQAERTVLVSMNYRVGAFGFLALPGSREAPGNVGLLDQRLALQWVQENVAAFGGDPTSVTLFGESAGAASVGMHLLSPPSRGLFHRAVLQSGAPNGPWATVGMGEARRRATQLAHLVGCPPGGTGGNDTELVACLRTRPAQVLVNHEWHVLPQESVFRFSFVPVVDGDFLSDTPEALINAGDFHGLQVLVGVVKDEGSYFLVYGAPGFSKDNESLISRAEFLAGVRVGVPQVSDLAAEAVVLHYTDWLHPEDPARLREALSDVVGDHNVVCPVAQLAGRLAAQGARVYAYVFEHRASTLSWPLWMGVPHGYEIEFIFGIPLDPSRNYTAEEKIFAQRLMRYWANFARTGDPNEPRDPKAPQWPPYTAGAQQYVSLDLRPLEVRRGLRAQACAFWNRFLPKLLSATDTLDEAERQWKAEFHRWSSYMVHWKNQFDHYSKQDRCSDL

| SMILES | IC50 [1] | IC50 [2] | IC50 [3] | IC50 [4] |
| --- | --- | --- | --- | --- |
| CCN(CC)CCOc1ccc(CC2CCn3c2nc2ccccc2c3=O)cc1 (stereo not drawn) | 1620 nM | > 20 µM |  |  |
| O=c1c2ccccc2nc2n1CC/C2=C\c1ccc(OCCN2CCCCC2)cc1 | 160 nM | 2.99 µM |  |  |
| CCN(CC)CCCOc1ccc(CC2CCn3c2nc2ccccc2c3=O)cc1 (stereo not drawn) | 8950 nM | > 20 µM |  |  |
| O=c1c2ccccc2nc2n1CCC2Cc1ccc(OCCN2CCCCC2)cc1 (stereo not drawn) | 750 nM | 8.29 µM |  |  |
| O=c1c2ccccc2nc2n1CC/C2=C\c1ccc(OCCCN2CCCCC2)cc1 | 720 nM | 1.66 µM |  |  |
| O=c1c2ccccc2nc2n1CCC2Cc1ccc(OCCCN2CCCCC2)cc1 (stereo not drawn) | 5580 nM | 5.72 µM |  |  |
| CCN(CC)CCCOc1ccc(/C=C2\CCn3c2nc2ccccc2c3=O)cc1 | 2410 nM | 7.12 µM |  |  |
| CCN(CC)CCOc1ccc(/C=C2\CCn3c2nc2ccccc2c3=O)cc1 | 480 nM | 12.7 µM |  |  |
| O=c1c2ccccc2nc2n1CCC2 [DEOXYVASICINONE] |  |  | 82.5 µM | 25.1 µM |
